# In US8765779B2, “Tricyclic derivatives and their pharmaceutical use and compositions” (Cephalon, Inc., priority 2009, dated 2014):
# Counter-ions that a name gives are not always drawn.
# Experiments:
# [1] = target: T1, human 5-HT6 receptor (Homo sapiens, UniProt P50406); test: Human 5-HT6 Receptor Binding Assay ([3H]LSD displacement, scintillation beads); settings: membranes of CHO-K1 cells with recombinant human 5-HT6, 4 nM [3H]LSD; Table 1, class symbols; read-out: h5-HT6 (Ki)
# T1 construct: host or cells: CHO-K1 cells, stably transfected; membranes prepared in house
# T1 sequence (P50406 whole entry): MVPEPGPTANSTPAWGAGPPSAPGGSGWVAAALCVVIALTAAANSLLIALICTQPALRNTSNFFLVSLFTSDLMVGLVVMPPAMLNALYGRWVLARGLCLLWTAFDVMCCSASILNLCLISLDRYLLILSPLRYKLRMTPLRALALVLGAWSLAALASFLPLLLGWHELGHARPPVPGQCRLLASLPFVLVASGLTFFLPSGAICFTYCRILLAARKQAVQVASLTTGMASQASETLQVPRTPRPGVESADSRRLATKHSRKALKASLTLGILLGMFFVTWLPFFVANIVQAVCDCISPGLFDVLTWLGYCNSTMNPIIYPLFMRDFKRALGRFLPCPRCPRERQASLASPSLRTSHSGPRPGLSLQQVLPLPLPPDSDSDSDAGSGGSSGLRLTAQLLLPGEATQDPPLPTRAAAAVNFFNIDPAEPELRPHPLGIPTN
melting point,Ki [1] [nM],Structure (SMILES)
237 to 239 °C,–,NC(=O)COc1cccc(S(=O)(=O)c2ccc3c(c2)OC2CNCCC32)c1 (centres unmarked) (as salt: HCl) [Example 563]
179 to 181 °C,–,COC(=O)CCCCOc1cccc(S(=O)(=O)c2ccc3c(c2)OC2CNCCC32)c1 (centres unmarked) (as salt: HCl) [Example 556]
> 200 °C,–,CNC(=O)c1c(F)cccc1S(=O)(=O)c1ccc2c(c1)OC1CNCCC21 (centres unmarked) (as salt: HCl) [Example 477]
233 to 234 °C,–,O=S(=O)(c1cccc(OCCn2cccc2)c1)c1ccc2c(c1)OC1CNCCC21 (centres unmarked) (as salt: HCl) [Example 573]
218 to 220 °C,–,COc1cc(OC2CCC2)cc(S(=O)(=O)c2ccc3c(c2)OC2CNCCC32)c1 (centres unmarked) (as salt: HCl) [Example 583]
205 to 206 °C,–,O=S(=O)(c1cccc(OCC2CCCO2)c1)c1ccc2c(c1)OC1CNCCC21 (centres unmarked) (as salt: HCl) [Example 577]
179 to 181 °C,–,COCCCOc1cccc(S(=O)(=O)c2ccc3c(c2)OC2CNCCC32)c1 (centres unmarked) (as salt: HCl) [Example 576]
175 to 177 °C,–,O=S(=O)(c1ccc2c(c1)OC1CNCCC21)c1cccc(OCC2CCOCC2)c1F (centres unmarked) (as salt: HCl) [Example 482]
262 to 265 °C,–,"CN(C)C(=O)c1cccc(S(=O)(=O)c2ccc3c4c(oc3c2)CNCC4)c1 (as salt: hydrochloride) [Example 474, N,N-Dimethyl-3-(1,2,3,4-tetrahydro[1]benzofuro[2,3-c]pyridin-7-ylsulfonyl)benzamide hydrochloride]"
179 to 182 °C,–,Cc1c(OCc2cccnc2)cccc1S(=O)(=O)c1ccc2c(c1)OC1CNCCC21 (centres unmarked) (as salt: HCl) [Example 566]
174 to 175 °C,–,C#CCOc1cccc(S(=O)(=O)c2ccc3c(c2)OC2CNCCC32)c1 (centres unmarked) (as salt: HCl) [Example 549]
239 to 241 °C,–,COc1cc(OC2CCCC2)cc(S(=O)(=O)c2ccc3c(c2)OC2CNCCC32)c1 (centres unmarked) (as salt: HCl) [Example 586]
256 °C (dec.),–,"CC(=O)N1CCC2(CC1)NCCc1c2oc2cc(S(=O)(=O)c3cccc(F)c3)ccc12 (as salt: HCl) [Example 41, 1-{7-[(3-fluorophenyl)sulfonyl]-3,4-dihydro-1′H,2H-spiro[1-benzofuro[2,3-c]pyridine-1,4′-piperidin]-1′-yl}ethanone]"
248 to 253 °C,–,"CC1(C)CNC2(CCOCC2)c2oc3cc([S+]([O-])c4cccc(F)c4)ccc3c21 (racemic) (as salt: HCl) [Example 47, 7-[(3-fluorophenyl)sulfinyl]-4,4-dimethyl-2′,3,3′,4,5′,6′-hexahydro-2H-spiro[1-benzofuro[2,3-c]pyridine-1,4′-pyran]]"
211 to 213 °C (dec.),–,CC(C)Oc1cc(OC(CO)CCl)cc(S(=O)(=O)c2ccc3c(c2)OC2CNCCC32)c1 (centres unmarked) (as salt: HCl) [Example 589]
210 to 260 °C,–,"CC(=O)NCC1(C)NCCc2c1oc1cc(S(=O)(=O)c3cccc(F)c3)ccc21 (centres unmarked) (as salt: HCl) [Example 632, N-({7-[(3-fluorophenyl)sulfonyl]-1-methyl-1,2,3,4-tetrahydro[1]benzofuro[2,3-c]pyridin-1-yl}methyl)acetamide]"
284 to 286 °C,–,"CC(C)CC1(C)NCCc2c1oc1cc(S(=O)(=O)c3cccc(F)c3)ccc21 (racemic) (as salt: HCl) [Example 36, 7-[(3-fluorophenyl)sulfonyl]-1-methyl-1-(2-methylpropyl)-1,2,3,4-tetrahydro[1]benzofuro[2,3-c]pyridine]"
335 °C (dec.),–,"COc1cccc(S(=O)(=O)c2ccc3c4c(oc3c2)C(C)(C)NCC4)c1 (as salt: HCl) [Example 16, 7-[(3-methoxyphenyl)sulfonyl]-1,1-dimethyl-1,2,3,4-tetrahydro[1]benzofuro[2,3-c]pyridine]"
205 to 208 °C,–,Cc1nc(COc2cccc(S(=O)(=O)c3ccc4c(c3)OC3CNCCC43)c2)cs1 (centres unmarked) (as salt: HCl) [Example 569]
184 to 186 °C,–,O=S(=O)(c1cccc(OC2CCOCC2)c1)c1ccc2c(c1)OC1CNCCC21 (centres unmarked) (as salt: HCl) [Example 571]
187 to 189 °C,–,"O=S(=O)(c1cccc(OCC2CCOCC2)c1)c1ccc2c(c1)OC1CNCCC21 (single isomer, unassigned) (as salt: HCl) [Example 548, 7-{[3-(Tetrahydro-2H-pyran-4-ylmethoxy)phenyl]sulfonyl}-1,2,3,4,4a,9a-hexahydro[1]benzofuro[2,3-c]pyridine]"
221 to 223 °C,–,CC(C)Oc1cccc(S(=O)(=O)c2ccc3c(c2)OC2CNCCC32)c1F (centres unmarked) (as salt: HCl) [Example 481]

melting point,Ki [1] [nM],Structure (SMILES)
> 200 °C (dec.),–,"CC(C)Oc1cccc(S(=O)(=O)c2ccc3c4c(oc3c2)C2(CCC2)NCC4)c1 (as salt: HCl) [Example 26, 7-{[3-(propan-2-yloxy)phenyl]sulfonyl}-3,4-dihydro-2H-spiro[1-benzofuro[2,3-c]pyridine-1,1′-cyclobutane]]"
263 to 266 °C,–,O=S(=O)(c1cccc(OCC(F)F)c1)c1ccc2c(c1)OC1CNCCC21 (centres unmarked) (as salt: HCl) [Example 578]
248 to 251 °C,–,COc1cc(OC)cc(S(=O)(=O)c2ccc3c(c2)OC2CNCCC32)c1 (centres unmarked) (as salt: HCl) [Example 480]
261 to 263 °C (dec.),–,"CC(C)Oc1cccc(S(=O)(=O)c2ccc3c4c(oc3c2)C2(CCOC2)NCC4)c1 (single isomer, unassigned) (as salt: HCl) [Example 31, 7-{[3-(propan-2-yloxy)phenyl]sulfonyl}-3,4,4′,5′-tetrahydro-2H-spiro[1-benzofuro[2,3-c]pyridine-1,3′-furan]]"
–,< 500,O=S(=O)(c1cc(F)cc(Cl)c1)c1ccc2c(c1)OC1CNCCC21 (centres unmarked) [Example 147]
–,< 500,CC1(C)NCCc2c1oc1cc(S(=O)(=O)c3cccnc3C(F)(F)F)ccc21 [Example 378]
–,> 1000,CC1(C)CNC2(CCOC2)c2oc3cc([S+]([O-])c4cncc(Cl)c4)ccc3c21 (centres unmarked) [Example 455]
–,< 500,O=S(=O)(c1cccc(Cl)c1)c1ccc2c3c(oc2c1)C1CCN1CC3 (centres unmarked) [Example 621]
–,< 500,O=S(=O)(c1ccccc1-c1ccccc1)c1cccc2c1OC1CNCCC21 (centres unmarked) [Example 191]
–,< 500,O=S(=O)(c1cccc(Oc2cnccn2)c1)c1ccc2c(c1)OC1CNCCC21 (centres unmarked) [Example 580]
–,< 500,CC1(C)CNCc2oc3cc(S(=O)(=O)c4cncc(Cl)c4)ccc3c21 [Example 452]
–,< 500,"O=S(=O)(c1cc(F)cc(F)c1)c1ccc2c3c(oc2c1)C1(CCOCC1)NCC3 [Example 301, 7-[(3,5-difluorophenyl)sulfonyl]-2′,3,3′,4,5′,6′-hexahydro-2H-spiro[1-benzofuro[2,3-c]pyridine-1,4′-pyran]]"
–,< 500,O=S(=O)(c1ccc2c3c(oc2c1)CNCC3)c1ccccn1 [Example 345]
–,< 500,Cc1ccc(C)c(S(=O)(=O)Oc2ccc3c(c2)C2CCNCC2O3)c1 (centres unmarked) [Example 704]
–,< 500,O=S(=O)(c1ccc2c(c1)OC1CNCCC21)c1cccnc1OCC(F)(F)F (centres unmarked) [Example 395]
–,< 500,O=S(=O)(c1cccc(F)c1)c1ccc2c(c1)OC1CNCCC21 (centres unmarked) [Example 117]
–,< 500,CC(C)c1ccc(S(=O)(=O)Oc2ccc3c(c2)OC2CNCCC32)cc1 (centres unmarked) [Example 794]
–,< 500,O=S(=O)(c1cccc(F)c1)c1ccc2c3c(oc2c1)C(C(F)F)NCC3 (centres unmarked) [Example 509]
–,< 500,"O=S(=O)(c1ccccc1)c1ccc2c3c([nH]c2c1)C1(CCOCC1)NCC3 [Example 545, 7-(Phenylsulfonyl)-2,2′,3,3′,4,5′,6′,9-octahydrospiro[beta-carboline-1,4′-pyran]trifluoroacetate]"
–,< 500,"O=S(=O)(c1ccc2oc3c(c2c1)CCNC3)c1cccc(Cl)c1Cl [Example 260, 6-[(2,3-dichlorophenyl)sulfonyl]-1,2,3,4-tetrahydro[1]benzofuro[2,3-c]pyridine]"
–,< 500,O=S(=O)(c1cccc(Cl)c1)c1ccc2c3c(oc2c1)CN(Cc1ccccc1)CC3 [Example 603]
–,< 500,O=S(=O)(c1ccccc1)c1ccc2c(c1)OC1CN(Cc3ccccc3)CCC21 (centres unmarked) [Example 611]

Structure (SMILES),melting point,Ki [1] [nM]
"CC12CCNCC1Oc1ccc(S(=O)(=O)c3ccccc3)cc12 (centres unmarked) (as salt: hydrochloride) [Example 62, 4a-Methyl-6-(phenylsulfonyl)-1,2,3,4,4a,9a-hexahydro[1]benzofuro[2,3-c]pyridine hydrochloride]",236 to 238 °C (dec.),–
COc1cc(OC)cc(S(=O)(=O)c2ccc3c(c2)OC2CNCCC32C)c1 (centres unmarked) (as salt: HCl) [Example 489],254 to 255 °C,–
COc1cc(OC)cc(S(=O)(=O)c2ccc3c(c2)OC2CNCCC32C)c1 (centres unmarked) (as salt: HCl) [Example 487],283 to 285 °C,–
"CCOc1cccc(S(=O)(=O)c2ccc3c(c2)OC2CNCCC32C)c1 (racemic) (as salt: HCl) [Example 10, 7-[(3-ethoxyphenyl)sulfonyl]-4a-methyl-1,2,3,4,4a,9a-hexahydro[1]benzofuro[2,3-c]pyridine]",271 to 273 °C,–
"Cc1cccc(S(=O)(=O)c2ccc3c(c2)OC2CNCCC32C)n1 (racemic) (as salt: HCl) [Example 6, 4a-methyl-7-[(6-methylpyridin-2-yl)sulfonyl]-1,2,3,4,4a,9a-hexahydro[1]benzofuro[2,3-c]pyridine]",255 to 258 °C,–
"COc1cccc(S(=O)(=O)c2ccc3c(c2)OC2CNCCC32C)c1 (racemic) (as salt: HCl) [Example 4, 7-[(3-methoxyphenyl)sulfonyl]-4a-methyl-1,2,3,4,4a,9a-hexahydro[1]benzofuro[2,3-c]pyridine]",279 to 280 °C,–
O=S(=O)(c1ccc2c(c1)OC1CNCCC21)c1ccccn1 (centres unmarked) [Example 331],–,500 to 1000
CC12CCNCC1Oc1ccc(OS(=O)(=O)Cc3ccccc3Cl)cc12 (centres unmarked) [Example 784],–,< 500
CC12CCNCC1Oc1ccc(OS(=O)(=O)c3ccc(-c4ccon4)s3)cc12 (centres unmarked) [Example 781],–,> 1000
